# Calls of active or inactive are those of the source. No cut-off for these calls is given here.
# Experiments:
# Cardiac muscle cell [1] = test: Anticardiac hypertrophic activity in phenylephrine-induced hypertrophy in neonatal Sprague-Dawley rat cardiomyocyte assessed as decrease in NPPA mRNA expression at 5 to 50 uM preincubated for 12 hrs followed by phenylephrine stimulation and measured after 48 hrs by qRT-PCR analysis; assay type: functional, cell-based; conditions: dose 5-50 µM, time 60.0 hrs
# Cardiac muscle cell [2] = test: Anticardiac hypertrophic activity in phenylephrine-induced hypertrophy in neonatal Sprague-Dawley rat cardiomyocyte assessed as decrease in ANP protein expression at 5 to 50 uM preincubated for 12 hrs followed by phenylephrine stimulation and measured after 48 hrs by Western blot analysis; assay type: functional, cell-based; conditions: dose 5-50 µM, time 60.0 hrs
# [3] = Cytotoxicity against neonatal Sprague-Dawley rat cardiomyocyte assessed as reduction in ANP expression incubated for 48 hrs by ELISA assay; assay type: toxicity, cell-based, Cardiac muscle cell; conditions: neonatal rat cardiomyocytes
# Cardiac muscle cell [4] = test: Anticardiac hypertrophic activity in phenylephrine-induced hypertrophy in neonatal Sprague-Dawley rat cardiomyocyte assessed as decrease in NPPB mRNA expression at 5 to 50 uM preincubated for 12 hrs followed by phenylephrine stimulation and measured after 48 hrs by qRT-PCR analysis; assay type: functional, cell-based; conditions: dose 5-50 µM, time 60.0 hrs
Structure (SMILES),Activity (Cardiac muscle cell [1]),Activity (Cardiac muscle cell [2]),IC50 at 48 h [3] [µM],Activity (Cardiac muscle cell [4])
C=C[C@@]12C=C(C)C(=O)C=C1[C@]1(C)CC[C@@H](O)C(C)(C)[C@H]1CC2,Dose-Dependent Effect,Active,41.8,Dose-Dependent Effect
COC(=O)c1cc2c(cc1OC)[C@]1(C)CCC(=O)C(C)(C)C1=C(O)C2=O,Dose-Dependent Effect,Active,52.3,Dose-Dependent Effect
